Reference: patent publication US7632972B2, “Compounds and methods for treatment of cancer and modulation of programmed cell death for melanoma and other cancer cells” (The Board of Trustees of the University of Illionis, priority 2003, dated 2009)

Experiments:
Assay type in all cases: cell-based, human
SK-OV-3 = test: NCI 60 cell line screen (SRB), Ovarian Cancer
Description: (§1) The operation of this screen utilizes 60 different human tumor cell lines, representing leukemia, melanoma and cancers of the lung, colon, brain, ovary, breast, prostate, and kidney. The aim is to prioritize for further evaluation, synthetic compounds or natural product samples showing selective growth inhibition or cell killing of particular tumor cell lines. This screen is unique in that the complexity of a 60 cell line dose response produced by a given compound results in a biological response pattern which can be utilized in pattern recognition algorithms. Using these algorithms, it is possible to assign a putative mechanism of action to a test compound, or to determine that the response pattern is unique and not similar to that of any of the standard prototype compounds included in the NCl database (see DTP Overview tab). In addition, following characterization of various cellular molecular targets in the 60 cell lines, it may be possible to select compounds most likely to interact with a specific molecular target.
(§2) The human tumor cell lines of the cancer screening panel are grown in RPMI 1640 medium containing 5% fetal bovine serum and 2 mM L-glutamine. For a typical screening experiment, cells are inoculated into 96 well microtiter plates in 100 μL at plating densities ranging from 5,000 to 40,000 cells/well depending on the doubling time of individual cell lines. After cell inoculation, the microtiter plates are incubated at 37° C., 5% CO2, 95% air and 100% relative humidity for 24 h prior to addition of experimental drugs.
(§3) After 24 h, two plates of each cell line are fixed in situ with TCA, to represent a measurement of the cell population for each cell line at the time of drug addition (Tz). Experimental drugs are solubilized in dimethyl sulfoxide at 400-fold the desired final maximum test concentration and stored frozen prior to use. At the time of drug addition, an aliquot of frozen concentrate is thawed and diluted to twice the desired final maximum test concentration with complete medium containing 50 μg/ml gentamicin. Additional four, 10-fold or ½ log serial dilutions are made to provide a total of five drug concentrations plus control. Aliquots of 100 μl of these different drug dilutions are added to the appropriate microtiter wells already containing 100 μl of medium, resulting in the required final drug concentrations.
(§4) Following drug addition, the plates are incubated for an additional 48 h at 37° C., 5% CO2, 95% air, and 100% relative humidity. For adherent cells, the assay is terminated by the addition of cold TCA. Cells are fixed in situ by the gentle addition of 50 μl of cold 50% (w/v) TCA (final concentration, 10% TCA) and incubated for 60 minutes at 4° C. The supernatant is discarded, and the plates are washed five times with tap water and air dried. Sulforhodamine B (SRB) solution (100 μl) at 0.4% (w/v) in 1% acetic acid is added to each well, and plates are incubated for 10 minutes at room temperature. After staining, unbound dye is removed by washing five times with 1% acetic acid and the plates are air dried. Bound stain is subsequently solubilized with 10 mM trizma base, and the absorbance is read on an automated plate reader at a wavelength of 515 nm. For suspension cells, the methodology is the same except that the assay is terminated by fixing settled cells at the bottom of the wells by gently adding 50 μl of 80% TCA (final concentration, 16% TCA). Using the seven absorbance measurements [time zero, (Tz), control growth, (C), and test growth in the presence of drug at the five concentration levels (Ti)], the percentage growth is calculated at each of the drug concentrations levels. Percentage growth inhibition is calculated as: [(Ti−Tz)/(C−Tz)]×100 for concentrations for which Ti>/=Tz [(Ti−Tz)/Tz]×100 for concentrations for which Ti<Tz.
(§5) Three dose response parameters are calculated for each experimental agent. […]

UO-31 = test: NCI 60 cell line screen (SRB), Renal Cancer
Description: as §1, §2, §3, §4, §5

ACHN = test: NCI 60 cell line screen (SRB), Renal Cancer
Description: as §1, §2, §3, §4, §5

TK-10 = test: NCI 60 cell line screen (SRB), Renal Cancer
Description: as §1, §2, §3, §4, §5

786-0 = test: NCI 60 cell line screen (SRB), Renal Cancer
Description: as §1, §2, §3, §4, §5

SN12C = test: NCI 60 cell line screen (SRB), Renal Cancer
Description: as §1, §2, §3, §4, §5

CAKI-1 = test: NCI 60 cell line screen (SRB), Renal Cancer
Description: as §1, §2, §3, §4, §5

SF-295 = test: NCI 60 cell line screen (SRB), CNS Cancer
Description: as §1, §2, §3, §4, §5

SNB-75 = test: NCI 60 cell line screen (SRB), CNS Cancer
Description: as §1, §2, §3, §4, §5

[1] = read-out: LC50 (the source's name)

COc1cccc(CCNC(=O)CC(c2ccccc2)(c2ccccc2)c2ccccc2)c1 [Compound Z3]
GI50 (SK-OV-3; SK-OV-3): > 100 µM | TGI (SK-OV-3; SK-OV-3): >1.00E−04 | Percent Growth (SK-OV-3; SK-OV-3, Log10 Concentration −4.0): 87% | Percent Growth (SK-OV-3; SK-OV-3, Log10 Concentration −5.0): 84% | Percent Growth (SK-OV-3; SK-OV-3, Log10 Concentration −6.0): 97% | Percent Growth (SK-OV-3; SK-OV-3, Log10 Concentration −7.0): 98% | Percent Growth (SK-OV-3; SK-OV-3, Log10 Concentration −8.0): 92% | CC50 (SK-OV-3; SK-OV-3, read-out: LC50 (the source's name)): > 100 µM | GI50 (UO-31; UO-31): 4.75 µM | TGI (UO-31; UO-31): >1.00E−04 | Percent Growth (UO-31; UO-31, Log10 Concentration −4.0): 20% | Percent Growth (UO-31; UO-31, Log10 Concentration −5.0): 33% | Percent Growth (UO-31; UO-31, Log10 Concentration −6.0): 85% | Percent Growth (UO-31; UO-31, Log10 Concentration −7.0): 98% | Percent Growth (UO-31; UO-31, Log10 Concentration −8.0): 86% | CC50 (UO-31; UO-31, read-out: LC50 (the source's name)): > 100 µM | GI50 (ACHN): 7.84 µM | TGI (ACHN): 9.48E−05 | Percent Growth (ACHN; Log10 Concentration −4.0): −1% | Percent Growth (ACHN; Log10 Concentration −5.0): 45% | Percent Growth (ACHN; Log10 Concentration −6.0): 94% | Percent Growth (ACHN; Log10 Concentration −7.0): 112% | Percent Growth (ACHN; Log10 Concentration −8.0): 102% | CC50 (ACHN; [1]): > 100 µM | GI50 (TK-10; TK-10): 21.9 µM | TGI (TK-10; TK-10): 8.22E−05 | Percent Growth (TK-10; TK-10, Log10 Concentration −4.0): −7% | Percent Growth (TK-10; TK-10, Log10 Concentration −5.0): 80% | Percent Growth (TK-10; TK-10, Log10 Concentration −6.0): 133% | Percent Growth (TK-10; TK-10, Log10 Concentration −7.0): 128% | Percent Growth (TK-10; TK-10, Log10 Concentration −8.0): 117% | CC50 (TK-10; TK-10, read-out: LC50 (the source's name)): > 100 µM | GI50 (786-0; 786-0): 10.6 µM | TGI (786-0; 786-0): >1.00E−04 | Percent Growth (786-0; 786-0, Log10 Concentration −4.0): 7% | Percent Growth (786-0; 786-0, Log10 Concentration −5.0): 51% | Percent Growth (786-0; 786-0, Log10 Concentration −6.0): 86% | Percent Growth (786-0; 786-0, Log10 Concentration −7.0): 98% | Percent Growth (786-0; 786-0, Log10 Concentration −8.0): 86% | CC50 (786-0; 786-0, read-out: LC50 (the source's name)): > 100 µM | Percent Growth (SN12C; Log10 Concentration −4.0): 217% | Percent Growth (SN12C; Log10 Concentration −5.0): −14% | Percent Growth (SN12C; Log10 Concentration −6.0): 51% | Percent Growth (SN12C; Log10 Concentration −7.0): 84% | Percent Growth (SN12C; Log10 Concentration −8.0): 87% | CC50 (SN12C; [1]): > 100 µM | GI50 (CAKI-1; CAKI-1): 3.16 µM | TGI (CAKI-1; CAKI-1): 5.09E−05 | Percent Growth (CAKI-1; CAKI-1, Log10 Concentration −4.0): −9% | Percent Growth (CAKI-1; CAKI-1, Log10 Concentration −5.0): 21% | Percent Growth (CAKI-1; CAKI-1, Log10 Concentration −6.0): 79% | Percent Growth (CAKI-1; CAKI-1, Log10 Concentration −7.0): 103% | Percent Growth (CAKI-1; CAKI-1, Log10 Concentration −8.0): 97% | CC50 (CAKI-1; CAKI-1, read-out: LC50 (the source's name)): > 100 µM | GI50 (SF-295; SF-295): 4.36 µM | TGI (SF-295; SF-295): >1.00E−04 | Percent Growth (SF-295; SF-295, Log10 Concentration −4.0): 15% | Percent Growth (SF-295; SF-295, Log10 Concentration −5.0): 27% | Percent Growth (SF-295; SF-295, Log10 Concentration −6.0): 91% | Percent Growth (SF-295; SF-295, Log10 Concentration −7.0): 113% | Percent Growth (SF-295; SF-295, Log10 Concentration −8.0): 100% | CC50 (SF-295; SF-295, read-out: LC50 (the source's name)): > 100 µM | GI50 (SNB-75; SNB-75): > 100 µM | TGI (SNB-75; SNB-75): >1.00E−04 | Percent Growth (SNB-75; SNB-75, Log10 Concentration −4.0): 96% | Percent Growth (SNB-75; SNB-75, Log10 Concentration −5.0): 118% | Percent Growth (SNB-75; SNB-75, Log10 Concentration −6.0): 113% | Percent Growth (SNB-75; SNB-75, Log10 Concentration −7.0): 117% | Percent Growth (SNB-75; SNB-75, Log10 Concentration −8.0): 94% | CC50 (SNB-75; SNB-75, read-out: LC50 (the source's name)): > 100 µM
